BindingDB's records for doi:10.1016/j.bmcl.2003.12.023 (Pfizer, 2004)

Molecular target: Mitogen-activated protein kinase 14 (Homo sapiens, UniProt Q16539)
Assay: Enzyme Inhibition Assay

Chain of Mitogen-activated protein kinase 14 (Q16539 whole entry): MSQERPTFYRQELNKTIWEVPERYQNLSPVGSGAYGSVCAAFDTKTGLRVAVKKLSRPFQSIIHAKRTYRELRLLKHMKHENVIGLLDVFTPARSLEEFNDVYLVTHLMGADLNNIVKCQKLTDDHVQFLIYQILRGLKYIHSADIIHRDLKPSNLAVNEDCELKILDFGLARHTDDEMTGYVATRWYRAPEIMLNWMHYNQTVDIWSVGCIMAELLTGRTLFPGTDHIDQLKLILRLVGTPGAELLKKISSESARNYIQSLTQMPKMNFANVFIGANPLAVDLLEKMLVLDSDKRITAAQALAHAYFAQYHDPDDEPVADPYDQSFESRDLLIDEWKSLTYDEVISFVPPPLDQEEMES

Structure (SMILES): CCn1c(=O)n(CC)c2cc(-c3[nH]c(C4CCNCC4)nc3-c3cccc(C)c3)ccc21 [1,3-diethyl-5-[4-(3-methylphenyl)-2-(piperidin-4-yl)-1H-imidazol-5-yl]-2,3-dihydro-1H-1,3-benzodiazol-2-one]
- IC50: 70 nM
